Values of other authors in patent US8398606B2, “Folded perineal pad” (QuantrRx Biomedical Corporation, priority 2007, dated 2013).

Set-up: dose or concentration left out as unconfirmed
Conditions: ILP system releasing of estradiol as its 3-acetate ester, in HRT; maintained level

- circulating plasma concentration of the drug: 300 pmol/L
Compound: C[C@]12CC[C@@H]3c4ccc(O)cc4CC[C@H]3[C@@H]1CC[C@@H]2O [estradiol]
